{
  "source": "patent US20010053796A1",
  "about": "“Delta-aminolevulinic acid for prevention and treatment of infection microorganisms and parasite” (priority 2000, published 2001)",
  "key": {"[1]": {"test_system": "Pseudomonas sp.", "experiment": "Treatment effect of infected fry by oral administration in feed", "assay_type": "in vivo, Sebastes schlegeli", "details": "50 fish, Bastardhalibut", "protocol": "In this example, fry of Bastardhalibut and Sebastes schlegeli (mean body weight 2 g), 50 per each breeding tank, were preliminary-bred for 1 week and stabilized. […] The artificial infection methods were carried out through the digestion method. Pathogenic organisms were applied into fish tanks and introduced into seawater for an hour, wherein the concentration of organisms adjusted to 10^4 CFU/mL. Treatment conditions are as follows; after artificial infection, infected fish were moved to fish tanks and kept in the infection period for 3 days. On the fourth day of infection, 0.1˜50 ppm of δ-aminolevulinic acid for feed were added. The fish were bred for 2 weeks after exchanging with clean seawater and the mortality of fish according to infection was monitored. In the control groups, after each bacteria were identically infected through digestion method, mortality of Bastardhalibut and Sebastes schlegeli according to bacteria infection was identified while breeding with marketing assorted feed without δ-aminolevulinic acid. As a result of this experiment, δ-aminolevulinic acid-treated groups have shown high viability in both Bastardhalibut (Table 20˜Table 23) and Sebastes schlegeli (Table 24˜Table 27)."}, "[2]": {"test_system": "Iridovirus", "experiment": "Treatment effect of virus-infected fish", "assay_type": "in vivo, Pagrus major", "details": "for mortality during 10 days: 30 fish", "source_text": "In this present example, as carried out in Experiment 2 of Example 3, from the result that inhibition effect of virus infection in vitro by δ-aminolevulinic acid treatment was ascertained, fish whose diseases were in progress by virus infection, decrease in the mortality of infected fish body was ascertained when treated with δ-aminolevulinic acid. Pagrus major diagnosed by the PCR method among a school of Iridovirus-infected fish from a fish farm nearby Yeosu, 30 of each were separated and contained in […]. They were divided to group A, B, C and control group. Temporary changes in mortality was ascertained in 10 ppm δ-aminolevulinic acid-treated A group, 1.0 ppm δ-aminolevulinic acid-treated B group, 0.1 ppm δ-aminolevulinic acid-treated C group and untreated control group by using δ-aminolevulinic acid produced by the inventor. Each δ-aminolevulinic acid-treated group was treated 3 times in […] and 10 days results were reported. In the case of actual fish farms, the mortality by virus infection reaches up to 70%. However, as shown in the result of infected fish of Table 28, in the present experimental condition, cumulative mortality of infected fish without treatment has reached up to 50% until 10th day of experimental period. In δ-aminolevulinic acid-treated groups, low mortalities of 17%, 17% and 27% was shown in the condition of A, B and C groups during 10 days, respectively."}},
  "data": [
    {"molecule": "NCC(=O)CCC(=O)O", "note": "[δ-aminolevulinic acid]", "values": [
      {"measurement": "Viability", "setting": "[1]; feed 0.1 ppm from 4th day of infection", "result": 52, "unit": "%"},
      {"measurement": "Viability", "setting": "[1]; feed 1.0 ppm from 4th day of infection", "result": 78, "unit": "%"},
      {"measurement": "Viability", "setting": "[1]; feed 10 ppm from 4th day of infection", "result": 86, "unit": "%"},
      {"measurement": "Viability", "setting": "[1]; feed 50 ppm from 4th day of infection", "result": 84, "unit": "%"},
      {"measurement": "Viable Fish number According to Elapsed days After Treatment", "setting": "[2]; 0.1 ppm, day 0", "result": 30},
      {"measurement": "Viable Fish number According to Elapsed days After Treatment", "setting": "[2]; 0.1 ppm, day 1", "result": 25},
      {"measurement": "Viable Fish number According to Elapsed days After Treatment", "setting": "[2]; 0.1 ppm, day 2", "result": 25},
      {"measurement": "Viable Fish number According to Elapsed days After Treatment", "setting": "[2]; 0.1 ppm, day 3", "result": 23},
      {"measurement": "Viable Fish number According to Elapsed days After Treatment", "setting": "[2]; 0.1 ppm, day 4", "result": 23},
      {"measurement": "Viable Fish number According to Elapsed days After Treatment", "setting": "[2]; 0.1 ppm, day 5", "result": 23},
      {"measurement": "Viable Fish number According to Elapsed days After Treatment", "setting": "[2]; 0.1 ppm, day 6", "result": 22},
      {"measurement": "Viable Fish number According to Elapsed days After Treatment", "setting": "[2]; 0.1 ppm, day 7", "result": 22},
      {"measurement": "Viable Fish number According to Elapsed days After Treatment", "setting": "[2]; 0.1 ppm, day 8", "result": 22},
      {"measurement": "Viable Fish number According to Elapsed days After Treatment", "setting": "[2]; 0.1 ppm, day 9", "result": 22},
      {"measurement": "Viable Fish number According to Elapsed days After Treatment", "setting": "[2]; 0.1 ppm, day 10", "result": 22},
      {"measurement": "Viable Fish number According to Elapsed days After Treatment", "setting": "[2]; 1.0 ppm, day 0", "result": 30},
      {"measurement": "Viable Fish number According to Elapsed days After Treatment", "setting": "[2]; 1.0 ppm, day 1", "result": 28},
      {"measurement": "Viable Fish number According to Elapsed days After Treatment", "setting": "[2]; 1.0 ppm, day 2", "result": 26},
      {"measurement": "Viable Fish number According to Elapsed days After Treatment", "setting": "[2]; 1.0 ppm, day 3", "result": 26},
      {"measurement": "Viable Fish number According to Elapsed days After Treatment", "setting": "[2]; 1.0 ppm, day 4", "result": 26},
      {"measurement": "Viable Fish number According to Elapsed days After Treatment", "setting": "[2]; 1.0 ppm, day 5", "result": 25},
      {"measurement": "Viable Fish number According to Elapsed days After Treatment", "setting": "[2]; 1.0 ppm, day 6", "result": 25},
      {"measurement": "Viable Fish number According to Elapsed days After Treatment", "setting": "[2]; 1.0 ppm, day 7", "result": 25},
      {"measurement": "Viable Fish number According to Elapsed days After Treatment", "setting": "[2]; 1.0 ppm, day 8", "result": 25},
      {"measurement": "Viable Fish number According to Elapsed days After Treatment", "setting": "[2]; 1.0 ppm, day 9", "result": 25},
      {"measurement": "Viable Fish number According to Elapsed days After Treatment", "setting": "[2]; 1.0 ppm, day 10", "result": 25},
      {"measurement": "Viable Fish number According to Elapsed days After Treatment", "setting": "[2]; 10 ppm, day 0", "result": 30},
      {"measurement": "Viable Fish number According to Elapsed days After Treatment", "setting": "[2]; 10 ppm, day 1", "result": 28},
      {"measurement": "Viable Fish number According to Elapsed days After Treatment", "setting": "[2]; 10 ppm, day 2", "result": 26},
      {"measurement": "Viable Fish number According to Elapsed days After Treatment", "setting": "[2]; 10 ppm, day 3", "result": 26},
      {"measurement": "Viable Fish number According to Elapsed days After Treatment", "setting": "[2]; 10 ppm, day 4", "result": 26},
      {"measurement": "Viable Fish number According to Elapsed days After Treatment", "setting": "[2]; 10 ppm, day 5", "result": 26},
      {"measurement": "Viable Fish number According to Elapsed days After Treatment", "setting": "[2]; 10 ppm, day 6", "result": 26},
      {"measurement": "Viable Fish number According to Elapsed days After Treatment", "setting": "[2]; 10 ppm, day 7", "result": 25},
      {"measurement": "Viable Fish number According to Elapsed days After Treatment", "setting": "[2]; 10 ppm, day 8", "result": 25},
      {"measurement": "Viable Fish number According to Elapsed days After Treatment", "setting": "[2]; 10 ppm, day 9", "result": 25},
      {"measurement": "Viable Fish number According to Elapsed days After Treatment", "setting": "[2]; 10 ppm, day 10", "result": 25},
      {"measurement": "mortality during 10 days", "setting": "[2]; A group, 10 ppm", "result": 17, "unit": "%"},
      {"measurement": "mortality during 10 days", "setting": "[2]; B group, 1.0 ppm", "result": 17, "unit": "%"},
      {"measurement": "mortality during 10 days", "setting": "[2]; C group, 0.1 ppm", "result": 27, "unit": "%"}
    ]}
  ]
}
